Laboratory results from ChEMBL document CHEMBL3507680, “University of Dundee, Gates Library screen for HepG2 cell viability”.

Test: Human HepG2 cell viability assay in 384 well format
Format: toxicity, cell-based
Design: dose 125 nL, time 70.5 hour; cytotoxicity at 70.5 h: concentration not given beside the values
Conditions: HepG2 cells, read-out: Inhibition

| Compound | cytotoxicity at 70.5 h |
| --- | --- |
| O=C1CCN(C(=O)C2(c3ccc(F)cc3)CCCCC2)CCN1 | -8.46% |
| Cc1cc(C(=O)N2CCC3(CC2)CC(c2cccnc2)C(=O)N3C)no1 (stereo not given) | 1.74% |
| CO[C@@H]1CCN(c2ncc(F)cn2)[C@@H]2CN(CC3CC3)C[C@@H]21 | -11.2% |
| OC(CNCCn1cccn1)c1ccc2c(c1)OCCO2 (stereo not given) | -2.85% |
| Cc1nc(C)n(C2CCCN(C(=O)Cc3ccc4c(c3)CCC4)C2)n1 (stereo not given) | -3.72% |
| c1ccc(-n2ccc(CN3CCCC3Cn3cncn3)n2)cc1 (stereo not given) | -3.62% |
| CC(C)(C)n1cc(C(=O)N2CCN(Cc3ccco3)CC2)cn1 | -8.01% |
| CC(Cc1ccc2c(c1)OCO2)c1cn(CCc2c[nH]cn2)nn1 (stereo not given) | -6.47% |
| Cc1cn(-c2ccccc2)nc1NS(=O)(=O)c1cc(C(=O)O)cs1 | 14.9% |
| CC1CS(=O)(=O)CCN1Cc1ccccc1N(C)C (stereo not given) | -0.403% |
| COCCN1C(=O)[C@H]2CC[C@@H]1CN(Cc1nnc(C3CC3)o1)C2 | 19.1% |
| Cc1cccc(C(C(=O)NCC2(O)CCCCC2)N(C)C)c1 (stereo not given) | 14.2% |
| Cc1cc(CN(C)C(=O)C(c2cccnc2)N2CCOCC2)n[nH]1 (stereo not given) | -10.1% |
| CCCS(=O)(=O)N1CCc2onc(CNc3ncccn3)c2C1 | 6.05% |
| Cc1nc(C(=O)Nc2cccnc2)c(C(C)C)s1 | -6.88% |
| CCCC1(CO)CCCN(c2ncccc2F)C1 (stereo not given) | -7.06% |
| COC(=O)CCN(C)C(=O)c1ccc(-c2cscn2)cc1 | 4.45% |
| CC(C)CN1CCCn2nc(CNC(=O)NC(C)(C)C)cc2C1 | -6.75% |
| O=C1CSCN1Cc1nc(-c2ccc(N3CCCCC3)cc2)no1 | -5.66% |
| CCc1ocnc1C(=O)N1CCCC1c1noc(C(C)C)n1 (stereo not given) | -11% |
| CS(=O)(=O)N1CCCCC1c1ccc(Nc2cnccn2)nc1 (stereo not given) | -7.53% |
| Cc1nn(CCc2nnc(NCC(C)C)s2)c(C)c1Br | -16% |
| CC(=O)N1CCC(NC(=O)c2ccc3c(c2O)OC(C)(C)C3)CC1 | -12.2% |

| Compound | cytotoxicity at 70.5 h |
| --- | --- |
| CN(CC1COc2ccccc2O1)C(=O)c1ccc(-c2cn[nH]c2)nc1 (stereo not given) | -2.63% |
| COc1cccc(COCC(=O)N2CCCC(N3CCCC3)CC2)c1 (stereo not given) | 3.21% |
| COCCn1ccnc1C1CCCN(C(=O)CSCC2CC2)C1 (stereo not given) | -3.02% |
| Cn1cc(CN2CCC3(CC2)C(=O)Nc2ccccc23)cn1 | -6.51% |
| CC(=O)N1CCCC1c1cccc(Cc2ccc(F)cc2)n1 (stereo not given) | -14.3% |
| CS(=O)(=O)c1cccc(C(N)c2ccc(F)cc2)c1 (stereo not given) | -3.93% |
| CCN1CC(C(=O)N2CCc3cc(C(N)=O)n(C)c3C2)CCC1=O (stereo not given) | -6.08% |
| CN(Cc1ccncn1)c1nccc(CCC(F)(F)F)n1 | 23% |
| O=c1cc(CN(Cc2ccco2)C2CC2)nc2ccc(Br)cn12 | -3.54% |
| Cc1nc[nH]c1CNCc1cccnc1N(C)C1CCCCC1 | -6% |
| O=C(Cn1ccc(=O)[nH]c1=O)NCc1cccnc1OCC(F)(F)F | -10.1% |
| O=C(c1nc(Cc2c[nH]c3ccccc23)no1)N1CCCC1 | -3.26% |
| O=C(NC1CC1)c1nc2c(o1)CN(c1ncccn1)C2 | 1.1% |
| Cc1nnc2n1CCN(c1nc3ccccc3o1)C2 | 1.55% |
| CNc1ccnc(N2CCCC(C(=O)c3ccccn3)C2)n1 (stereo not given) | 24.1% |
| Cc1nc(-c2ccccc2F)sc1C(=O)N1CCN(C)CC1 | -10.6% |
| CN(C)C(=O)c1ccc(N2CCC3(CCC(=O)N(CCO)C3)CC2)nc1 | -2.34% |
| CCCS(=O)(=O)N1CCC2(CCCN(c3ncc(F)cn3)C2)C1 (stereo not given) | -6.01% |
| COC(=O)[C@@H]1Cc2ncn(C)c2CN1S(=O)(=O)c1ccc(OC)cc1 | -3.58% |
| CCN(CC)c1ccc(CNC(=O)c2ccc(=O)[nH]n2)cn1 | -13.1% |
| CCOc1ccc(C(=O)N2CCCC(n3nc(C)nc3C)C2)cc1 (stereo not given) | 1.39% |
| Cc1cc(C)n(C2CCCN(C(=O)C3=NN(C)C(=O)CC3)C2)n1 (stereo not given) | -9.81% |
| CC(C)OCc1ccccc1CNC(=O)C(C)(C)C | 0.195% |

| Compound | cytotoxicity at 70.5 h |
| --- | --- |
| Cc1nn(C)c(=O)c2nn(-c3ccc(F)cc3)c(C)c12 | -8.42% |
| Cc1ccc(NC2CCCN(Cc3ccc(Cl)cc3)C2)nn1 (stereo not given) | 25.4% |
| CCNC(=O)c1ccc(NC2CCOC3(CCCC3)C2)nn1 (stereo not given) | 17% |
| Cc1nc(NC(=O)C(C)N2CCN(c3cnccn3)CC2)sc1C (stereo not given) | -4.32% |
| COc1nc2c(cc1C(=O)N1C[C@@H](N)C[C@H]1C(=O)NC(C)C)CCC2 | -2.39% |
| CS(=O)(=O)N1CCCC1c1cccc(Cc2ccccc2F)n1 (stereo not given) | -6.97% |
| Cc1ccc(C2CCCN2S(=O)(=O)N(C)Cc2cnn(C)c2)o1 (stereo not given) | 13.3% |
| CC(C)c1nc(CN(C)Cc2ccc(F)cc2)cs1 | -22.4% |
| COc1cc(N2CC[C@@H]3O[C@@H](c4ccncn4)C[C@H]3C2)ncn1 | 7.96% |
| Cc1cccnc1[C@H](C)Nc1nc(-c2cccnc2)nc2c1CNC2 | -8.07% |
| Cc1ccc(CNCc2nnc3n2CCCC3C(F)(F)F)s1 (stereo not given) | -10.1% |
| NC(=O)c1ccccc1Oc1cnc(C2CCCN2)cn1 (stereo not given) | -7.87% |
| CNS(=O)(=O)c1ccc(C(=O)N2CCCCC2c2ccc(C)cc2)o1 (stereo not given) | -2.53% |
| Cc1noc(C)c1CN1CC[C@H]2OCC[C@@]2(C(=O)N2CCCC2)C1 | -5.9% |
| O=C(CNC(=O)N(Cc1ccoc1)C1CCCCC1)N1CCCC1 | -7.2% |
| Cn1ccnc1CN1CCN(CC(=O)NCc2cccs2)CC1 | 13.9% |
| CC(O)CNCc1c(C(C)C)nn(C)c1N1CCOCC1 (stereo not given) | -0.301% |
| COc1ccccc1C(C)NC(=O)NCCC(=O)NC1CCCCC1 (stereo not given) | -16.1% |
| Cc1nc(CN2CCCC(CCc3ccccc3F)C2)c[nH]1 (stereo not given) | 1.04% |
| CCn1nc2c(cc1=O)CN(CC(=O)Nc1nncs1)CC2 | -10.2% |
| COc1ccc(NCC(=O)NCC(=O)N2CCCC2)c(C(F)(F)F)c1 | -2.2% |
| Cc1cc2n(n1)CC(CNCc1cnn(-c3ccccc3)c1)CN2 (stereo not given) | -3.87% |
| CC(=O)N1CCCn2nc(CNS(=O)(=O)N3CCCCCC3)cc2C1 | -10.6% |

| Compound | cytotoxicity at 70.5 h |
| --- | --- |
| Cn1c(NC(=O)CNC(=O)C2CCCC2)nc2cc(Cl)ccc21 | -9.81% |
| CSCC(=O)N1CCCC(c2cc(C)[nH]n2)C1 (stereo not given) | -12% |
| Cc1nc(C)n(CC2CCCCN2CCCO)n1 (stereo not given) | 9.77% |
| COc1cc(N2C[C@@H]3COC[C@@H](Cc4nc(C)no4)[C@@H]3C2)ncn1 | -7.51% |
| CC(C)c1nnc2n1CCN(Cc1ccc3c(c1)OCO3)CC2 | -11.5% |
| COc1cccc(CN2CCCCC2Cn2nc(C)nc2C)c1 (stereo not given) | -9.6% |
| Cc1cc(N2CCc3c(ncn3C3CC3)C2)nc(N)n1 | -7.99% |
| CN(C)c1ccc(C(=O)N2CCCN(C3CCCCC3)CC2)cn1 | -7.27% |
| Cc1c(C)n2c(SCC(=O)N3CCCC3)nnc2[nH]c1=O | -7.34% |
| Cn1ncc2c(NCCOc3ccc(F)cc3)nc(C3CCCC3)nc21 | 0.952% |
| COCc1nc(CNc2cccc(-c3ncon3)c2)cs1 | 29.2% |
| CN(Cc1ccccc1CN1CCCC1)c1ncnc2[nH]ccc12 | -4.3% |
| O=C(c1cccs1)N1C[C@H]2CCC[C@@]2(COCC2CCOCC2)C1 | 23.2% |
| Cc1ccc(-c2nnc(CN3CCn4c(nnc4C4CC4)C3)o2)cc1 | -8.76% |
| CCc1ccsc1C(=O)N1CCCN(Cc2cnn(CC)c2)CC1 | 7.56% |
| Cc1ccc(CNC(=O)CCNS(C)(=O)=O)cc1 | -5.54% |
| COc1ccc(CNCC2CNc3cc(C)nn3C2)cn1 (stereo not given) | -2.49% |
| Cc1noc(Cl)c1CC(=O)N1CCCC1Cn1cccn1 (stereo not given) | 2.85% |
| CCc1noc(C)c1C(=O)NCc1cc[nH]n1 | 0.164% |
| Cc1cc(C)n(CC2CCCN2C(=O)CCNc2ncccn2)n1 (stereo not given) | -4.55% |
| Cc1c(-c2cnn(C)c2)nc(N)c(C#N)c1-c1ccc(CO)o1 | 2.44% |
| Cc1cnn(CCNCc2ccc(OCc3ccccn3)cc2)c1 | 2.45% |
| CC(C(N)=O)N(C)CCCc1cc(-c2ccc(F)cc2)n(C)n1 (stereo not given) | -9.74% |

| Compound | cytotoxicity at 70.5 h |
| --- | --- |
| CC(NCCN1CCN(C(=O)C2CCCC2)CC1)c1cnn(C)c1 (stereo not given) | 5.6% |
| O=C1CCCC2=C1C(c1ccccc1Cl)Nc1nonc1N2 (stereo not given) | 0.0122% |
| O=C(CN1CCCNC1=O)Nc1ccccc1SC(F)(F)F | 21.5% |
| Cc1ccc(S(=O)(=O)NCC(C)(C)N)c(F)c1 | -6.25% |
| O=C(c1ccc(C2CCCN2)s1)N1CC=CC1 (stereo not given) | -6.78% |
| CC(C)N(C)S(=O)(=O)N1CCCC1CC(=O)c1cccs1 (stereo not given) | -0.315% |
| CCOc1ccccc1OC1CCN(C(=O)c2[nH]nc(C)c2Br)CC1 | 0.076% |
| N#Cc1cccc(N2CCC(CO)(CCc3ccccc3)CC2)n1 | -5.51% |
| Cc1ccc(OCC(=O)N2C[C@@H]3CN(C)CCO[C@@H]3C2)cc1 | -7.41% |
| CC(C)(C)NC(=O)Cn1nc(C2CC2)cc(C(F)(F)F)c1=O | -1.18% |
| Cc1cnn(CCNCc2ccc(OCc3noc(C)n3)cc2)c1 | -6.14% |
| O=C(c1ccnc(N2CCOC(C(F)(F)F)C2)c1)N1CCCC1 (stereo not given) | 8.43% |
| Cc1noc2ncc(C(=O)N3CCCC3c3cnn(C)c3)cc12 (stereo not given) | -6.59% |
| Fc1cc(F)cc(CN2CCC(c3cc4ncccc4cn3)CC2)c1 | 1.34% |
| O=C(Cc1ccc(F)cc1)NCC1CCN(Cc2ccsc2)CC1 | -3.3% |
| Cc1cccc(N2CCOC(C(=O)O)C2)c1 (stereo not given) | -6.1% |
| Cc1ccc(N2CCCC(NCc3cccc4c3OCCO4)C2)nn1 (stereo not given) | -4.41% |
| O=C([C@@H]1CCO[C@@H]2CCN(CC3CC3)C[C@H]21)N1CCCC1 | -2.49% |
| O=C(C1CCC1)N1CCC2(COCc3cnc(-c4cccnc4)nc32)C1 (stereo not given) | -3.5% |
| Cc1cnn(C2CCCN(C(=O)c3ccc(N4CCCC4)nc3)C2)c1 (stereo not given) | -7.94% |
| O=C(Cn1c(=O)oc2ccccc21)N1Cc2cncnc2C1 | -5.29% |
| CC(=O)c1csc(-c2csc(Cn3ccc(=O)[nH]c3=O)n2)c1 | 4.03% |
| CN1CC(C(=O)NCc2cccnc2OCc2ccccc2)CC1=O (stereo not given) | -4.14% |
